Measurements taken from ChEMBL document CHEMBL3769303, “Discovery of membrane active benzimidazole quinolones-based topoisomerase inhibitors as potential DNA-binding antimicrobial agents” (Eur J Med Chem, 2016).
≈ marks a conversion by molar mass, not a printed value.

Legend:
Format in all cases: functional
[1] = test system: Shigella dysenteriae; experiment: Antibacterial activity against Shigella dysenteriae by micro broth dilution method
[2] = test system: Staphylococcus aureus; experiment: Antibacterial activity against methicillin-resistant Staphylococcus aureus N315 by micro broth dilution method
[3] = test system: Staphylococcus aureus; experiment: Antibacterial activity against Staphylococcus aureus ATCC 25923 by micro broth dilution method
[4] = test system: Micrococcus luteus; experiment: Antibacterial activity against Micrococcus luteus ATCC 4698 by micro broth dilution method; conditions: NCTC 2665
[5] = test system: Bacillus spizizenii; experiment: Antibacterial activity against Bacillus subtilis ATCC 6633 by micro broth dilution method
[6] = test system: Escherichia coli; experiment: Antibacterial activity against Escherichia coli DH52 by micro broth dilution method
[7] = test system: Escherichia coli; experiment: Antibacterial activity against Escherichia coli JM109 by micro broth dilution method
[8] = test system: Pseudomonas aeruginosa; experiment: Antibacterial activity against Pseudomonas aeruginosa ATCC 27853 by micro broth dilution method
[9] = Antibacterial activity against Bacillus proteus ATCC 13315 by micro broth dilution method
[10] = test system: Salmonella enterica; experiment: Antibacterial activity against Salmonella enterica ATCC 14028 by micro broth dilution method
[11] = Antifungal activity against Candida mycoderma ATCC 9888 after 24 hrs by micro broth dilution method; conditions: Candida vini
[12] = test system: Cyberlindnera jadinii; experiment: Antifungal activity against Candida utilis ATCC 9950 after 24 hrs by micro broth dilution method; conditions: Williopsis jadinii, ATCC 9950, 24 h
[13] = test system: Aspergillus flavus; experiment: Antifungal activity against Aspergillus flavus ATCC 204304 after 24 hrs by micro broth dilution method; conditions: ATCC 204304, 24 h
[14] = test system: Saccharomyces cerevisiae; experiment: Antifungal activity against Saccharomyces cerevisiae ATCC 9763 after 24 hrs by micro broth dilution method; conditions: ATCC 9763, 24 h
[15] = test system: Candida albicans; experiment: Antifungal activity against Candida albicans ATCC 10231 after 24 hrs by micro broth dilution method; conditions: ATCC 10231, 24 h

Row | Compound | MIC [1] | MIC [2] | MIC [3] | MIC [4] | MIC [5] | MIC [6] | MIC [7] | MIC [8] | MIC [9] | MIC [10] | MIC80 [11] | MIC80 [12] | MIC80 [13] | MIC80 [14] | MIC80 [15]
1 | CCCCCCCCCCCCCCCCCCn1c(CN2CCN(c3cc4c(cc3F)c(=O)c(C(=O)O)cn4C3CC3)CC2)nc2ccccc21 | 64 µg/mL (≈ 89.6 µM) | 64 µg/mL (≈ 89.6 µM) | 64 µg/mL (≈ 89.6 µM) | 128 µg/mL (≈ 179 µM) | 64 µg/mL (≈ 89.6 µM) | 128 µg/mL (≈ 179 µM) | 128 µg/mL (≈ 179 µM) | 32 µg/mL (≈ 44.8 µM) | 64 µg/mL (≈ 89.6 µM) | 16 µg/mL (≈ 22.4 µM) | 64 µg/mL (≈ 89.6 µM) | 128 µg/mL (≈ 179 µM) | 64 µg/mL (≈ 89.6 µM) | 64 µg/mL (≈ 89.6 µM) | 128 µg/mL (≈ 179 µM)
2 | COC(=O)c1cn(C2CC2)c2cc(N3CCN(/C=N\c4nc5ccccc5[nH]4)CC3)c(F)cc2c1=O | 8 µg/mL (≈ 16.4 µM) | 64 µg/mL (≈ 131 µM) | 32 µg/mL (≈ 65.5 µM) | 4 µg/mL (≈ 8.19 µM) | 2 µg/mL (≈ 4.09 µM) | 8 µg/mL (≈ 16.4 µM) | 8 µg/mL (≈ 16.4 µM) | 2 µg/mL (≈ 4.09 µM) | 4 µg/mL (≈ 8.19 µM) | 4 µg/mL (≈ 8.19 µM) | 16 µg/mL (≈ 32.8 µM) | 8 µg/mL (≈ 16.4 µM) | 4 µg/mL (≈ 8.19 µM) | 2 µg/mL (≈ 4.09 µM) | 32 µg/mL (≈ 65.5 µM)
3 | O=C(O)c1cn(C2CC2)c2cc(N3CCN(Cc4nc5ccccc5[nH]4)CC3)c(F)cc2c1=O | 1 µg/mL (≈ 2.17 µM) | 0.125 µg/mL (≈ 0.271 µM) | 0.25 µg/mL (≈ 0.542 µM) | 0.125 µg/mL (≈ 0.271 µM) | 0.125 µg/mL (≈ 0.271 µM) | 0.125 µg/mL (≈ 0.271 µM) | 0.5 µg/mL (≈ 1.08 µM) | 0.5 µg/mL (≈ 1.08 µM) | 0.125 µg/mL (≈ 0.271 µM) | 0.125 µg/mL (≈ 0.271 µM) | 0.125 µg/mL (≈ 0.271 µM) | 0.125 µg/mL (≈ 0.271 µM) | 0.5 µg/mL (≈ 1.08 µM) | 0.0625 µg/mL (≈ 0.135 µM) | 0.0625 µg/mL (≈ 0.135 µM)
4 | O=C(O)c1cn(C2CC2)c2cc(N3CCN(CCc4nc5ccccc5[nH]4)CC3)c(F)cc2c1=O | 0.5 µg/mL (≈ 1.05 µM) | 4 µg/mL (≈ 8.41 µM) | 4 µg/mL (≈ 8.41 µM) | 1 µg/mL (≈ 2.1 µM) | 128 µg/mL (≈ 269 µM) | 4 µg/mL (≈ 8.41 µM) | 2 µg/mL (≈ 4.21 µM) | 0.5 µg/mL (≈ 1.05 µM) | 2 µg/mL (≈ 4.21 µM) | 1 µg/mL (≈ 2.1 µM) | 2 µg/mL (≈ 4.21 µM) | 4 µg/mL (≈ 8.41 µM) | 1 µg/mL (≈ 2.1 µM) | 1 µg/mL (≈ 2.1 µM) | 2 µg/mL (≈ 4.21 µM)
5 | CCCCCCCCCCn1c(CN2CCN(c3cc4c(cc3F)c(=O)c(C(=O)O)cn4CC)CC2)nc2ccccc21 | 8 µg/mL (≈ 13.6 µM) | 8 µg/mL (≈ 13.6 µM) | 32 µg/mL (≈ 54.3 µM) | 16 µg/mL (≈ 27.1 µM) | 4 µg/mL (≈ 6.78 µM) | 0.5 µg/mL (≈ 0.848 µM) | 32 µg/mL (≈ 54.3 µM) | 4 µg/mL (≈ 6.78 µM) | 8 µg/mL (≈ 13.6 µM) | 8 µg/mL (≈ 13.6 µM) | 8 µg/mL (≈ 13.6 µM) | 4 µg/mL (≈ 6.78 µM) | 4 µg/mL (≈ 6.78 µM) | 4 µg/mL (≈ 6.78 µM) | 16 µg/mL (≈ 27.1 µM)
6 | CCCCCn1c(CN2CCN(c3cc4c(cc3F)c(=O)c(C(=O)O)cn4C3CC3)CC2)nc2ccccc21 | 8 µg/mL (≈ 15 µM) | 64 µg/mL (≈ 120 µM) | 128 µg/mL (≈ 241 µM) | 4 µg/mL (≈ 7.52 µM) | 4 µg/mL (≈ 7.52 µM) | 1 µg/mL (≈ 1.88 µM) | 128 µg/mL (≈ 241 µM) | 2 µg/mL (≈ 3.76 µM) | 2 µg/mL (≈ 3.76 µM) | 4 µg/mL (≈ 7.52 µM) | 2 µg/mL (≈ 3.76 µM) | 8 µg/mL (≈ 15 µM) | 256 µg/mL (≈ 482 µM) | 256 µg/mL (≈ 482 µM) | 8 µg/mL (≈ 15 µM)
7 | O=C(O)c1cn(C2CC2)c2cc(N3CCN(c4nc5ccccc5[nH]4)CC3)c(F)cc2c1=O | 0.5 µg/mL (≈ 1.12 µM) | 0.5 µg/mL (≈ 1.12 µM) | 1 µg/mL (≈ 2.23 µM) | 1 µg/mL (≈ 2.23 µM) | 2 µg/mL (≈ 4.47 µM) | 1 µg/mL (≈ 2.23 µM) | 2 µg/mL (≈ 4.47 µM) | 0.5 µg/mL (≈ 1.12 µM) | 2 µg/mL (≈ 4.47 µM) | 1 µg/mL (≈ 2.23 µM) | 16 µg/mL (≈ 35.8 µM) | 4 µg/mL (≈ 8.94 µM) | 1 µg/mL (≈ 2.23 µM) | 1 µg/mL (≈ 2.23 µM) | 2 µg/mL (≈ 4.47 µM)
8 | CCCn1c(CN2CCN(c3cc4c(cc3F)c(=O)c(C(=O)O)cn4CC)CC2)nc2ccccc21 | 32 µg/mL (≈ 65.1 µM) | 16 µg/mL (≈ 32.5 µM) | 256 µg/mL (≈ 521 µM) | 8 µg/mL (≈ 16.3 µM) | 2 µg/mL (≈ 4.07 µM) | 32 µg/mL (≈ 65.1 µM) | 128 µg/mL (≈ 260 µM) | 32 µg/mL (≈ 65.1 µM) | 128 µg/mL (≈ 260 µM) | 16 µg/mL (≈ 32.5 µM) | 2 µg/mL (≈ 4.07 µM) | 32 µg/mL (≈ 65.1 µM) | 32 µg/mL (≈ 65.1 µM) | 32 µg/mL (≈ 65.1 µM) | 32 µg/mL (≈ 65.1 µM)
9 | CCn1cc(C(=O)OC)c(=O)c2cc(F)c(N3CCN(/C=N\c4nc5ccccc5[nH]4)CC3)cc21 | 64 µg/mL (≈ 134 µM) | 128 µg/mL (≈ 269 µM) | 64 µg/mL (≈ 134 µM) | 32 µg/mL (≈ 67.2 µM) | 4 µg/mL (≈ 8.39 µM) | 32 µg/mL (≈ 67.2 µM) | 64 µg/mL (≈ 134 µM) | 8 µg/mL (≈ 16.8 µM) | 32 µg/mL (≈ 67.2 µM) | 16 µg/mL (≈ 33.6 µM) | 128 µg/mL (≈ 269 µM) | 64 µg/mL (≈ 134 µM) | 64 µg/mL (≈ 134 µM) | 32 µg/mL (≈ 67.2 µM) | 64 µg/mL (≈ 134 µM)
10 | CCn1cc(C(=O)O)c(=O)c2cc(F)c(N3CCN(Cc4nc5ccccc5n4Cc4ccccc4F)CC3)cc21 | 512 µg/mL (≈ 918 µM) | 256 µg/mL (≈ 459 µM) | 512 µg/mL (≈ 918 µM) | 512 µg/mL (≈ 918 µM) | 128 µg/mL (≈ 230 µM) | 512 µg/mL (≈ 918 µM) | 512 µg/mL (≈ 918 µM) | 512 µg/mL (≈ 918 µM) | 512 µg/mL (≈ 918 µM) | 512 µg/mL (≈ 918 µM) | 512 µg/mL (≈ 918 µM) | 512 µg/mL (≈ 918 µM) | 512 µg/mL (≈ 918 µM) | 512 µg/mL (≈ 918 µM) | 512 µg/mL (≈ 918 µM)
